SMILES strings stand for the structures.

This is an account of results in patent US20210278393A1, “METHOD FOR MEASURING SINGLE-CELL BIOMASS TO PREDICT CLINICAL OUTCOMES FOR STEM CELL TRANSPLANT PATIENTS” (VIRGINIA COMMONWEALTH UNIVERSITY, priority 2016, published 2021).

The test system of one series is M249R4 cells. Briefly: HSLCI kinase inhibitor screen in Vemurafenib-resistant melanoma. In kind it is cell-based, human. Here is the method:
(§1) Kinase inhibitor screen. 1× Dose Determination: For each inhibitor, a 1× dose was calculated. Briefly, recommended clinical doses were obtained from published package inserts. Doses were matched to peak serum concentrations (Cmax (ng/mL)) for each inhibitor as measured in clinical trials in which the recommended doses were utilized. Using each drugs' molecular weight, peak serum concentration values were converted to uM units and designated as 1×. […] Cobimetinib and Binimetinib were supplied as dry powders and suspended in DMSO to a final stock concentration of 10 mM upon receipt. Cell Preparation and Dosing: M249R4 cells were plated in a 24-well optical glass-bottomed plate (Cat. #P24-0-N, Cellvis) at 1×10^4 cells/ml (total of 1 mL in each of 24 wells) in media (DMEM, 10% Fetal Bovine Serum, 2 mM L-Glutamine) containing 1 uM Vemurafenib. Plated cells were allowed to adhere overnight at 37° C., 5% CO2. All cells were washed with 1× phosphate-buffered saline, pH 7.4, and provided with fresh media. Immediately following washing and feeding, cells were dosed with inhibitors at dose-escalating concentrations and incubated under standard cell culture conditions for 24 hours. After incubation, cells were imaged for 10 hours using the HSLCI system.
(§2) These inhibitors target a spectrum of kinases (Table 2). […] For each targeted kinase inhibitor, a 1× dose was calculated to match the peak tolerated serum concentration (Cmax (ng/mL)), as measured in clinical trials. Our first assay screened all seven inhibitors at several concentrations to identify those that elicited the most apparent reduction in cell growth rates.

Series [1] in a line: Peak serum concentration (Cmax) in clinical trials at recommended clinical dose. In kind it is in vivo, human. As to conditions: 1× dose for the screen. The protocol: as §1, §2
For series [2] the following is noted: at recommended clinical dose, clinical trials; cited from earlier work.
In series [3] the test system is all three parental lines (M229P, M238P, M249P). Briefly: HSLCI population kinetic response (biomass growth rate). In kind it is cell-based, human. As to conditions: 5 μM Vemurafenib. An excerpt:
Live Cell Interferometry. The standard and high speed LCI platforms were based on a custom built inverted microscope, coupled to a quantitative phase detecting camera (SID4BIO, Phasics) which consists of a modified Shack-Hartman mask, fitted to a 1600×1200 pixel CCD camera [Imprex B1621]). The phase calculation down samples the raw image to 400×300 pixels, resulting in effective pixel sizes between 1.3 μm and 2.5 μm, depending on the objective. […] In both the standard and high speed systems, position was determined by maximizing contrast during a vertical scan though focus. […]
Image analysis. Raw interferograms were converted to phase images using the manufacturer's software and analyzed with our custom MATLAB script (The MathWorks). […] Using the resulting flattened phase images, single cells segmented from the background using Canny spatial-derivative edge detection algorithms, their locations, and optical volumes were recorded. […] Single cell growth tracks were quality filtered using an upper cutoff of +1-15% uncertainty (s.d. of residuals) in the calculated growth rate, as determined by linear fitting the biomass versus time data. […]

The mark [4] stands for this setting: second assay, up to 10× concentration.

For the compound `Cn1cnc2c(F)c(Nc3ccc(Br)cc3F)c(C(=O)NOCCO)cc21` [Binimetinib], the dose response entry with M249R4 cells (first assay) was “slight dose response”. Further, in series [1], the “uM (1×) (peak serum concentration converted using molecular weight)” value (“uM (1×)” for short) was found to be 0.58 µM. Further, the “Serum Conc. (ng/mL) (peak serum concentration, Cmax)” value (“Serum Conc. (ng/mL)” for short) in series [2] is 257.0 ng/mL.

Take `O=C(c1ccc(F)c(F)c1Nc1ccc(I)cc1F)N1CC(O)([C@@H]2CCCCN2)C1` [Cobimetinib]: the dose response result in the series with M249R4 cells (second assay, dosing range 0.05×-1×) was “robust dose responses”. The “uM (1×)” value in series [1] was found to be 0.51 µM. Moreover, the “Serum Conc. (ng/mL)” value in series [2] was 273 ng/mL.

Regarding `CC(C)(C)c1nc(-c2cccc(NS(=O)(=O)c3c(F)cccc3F)c2F)c(-c2ccnc(N)n2)s1` [Dabrafenib], the growth rate response entry in the series with M249R4 cells (first assay, 0.1×) is listed as “slight reduction in growth rate”. Also, the growth rate response result in the series on M249R4 cells (second assay, doses greater than 0.1×) is “reduced growth rates”. Also, in the series with M249R4 cells (setting [4]), the cell killing result was “nor does it kill cells” and the dose response result was “does not elicit a dose response”. The “uM (1×)” value in series [1] is 2.02 µM. In addition, in series [2], the “Serum Conc. (ng/mL)” value was 1050 ng/mL.

For the compound `Cn1cnc2c(F)c(Nc3ccc(Br)cc3Cl)c(C(=O)NOCCO)cc21` [Selumetinib], the “uM (1×)” value in series [1] amounted to 2.55 µM. Further, in series [2], the “Serum Conc. (ng/mL)” value is reported as 1165 ng/mL.

On to `CC(=O)Nc1cccc(-n2c(=O)n(C3CC3)c(=O)c3c(Nc4ccc(I)cc4F)n(C)c(=O)c(C)c32)c1` [Trametinib], for which the “uM (1×)” value in series [1] turned out to be 0.04 µM. For the same compound, in series [2], the “Serum Conc. (ng/mL)” value is listed as 22.2 ng/mL.

For `CCCS(=O)(=O)Nc1ccc(F)c(C(=O)c2c[nH]c3ncc(-c4ccc(Cl)cc4)cc23)c1F` [Vemurafenib], in series [3], the “time by which significant growth rate reduction occurred” value is at most 20 h. In addition, the “uM (1×)” value in series [1] worked out at 9.80 µM. Besides, the “Serum Conc. (ng/mL)” value in series [2] is on record as 4800 ng/mL.
